Measured values as given in patent publication US20230111310A1, “CARBOXYLIC ACID DERIVATIVE-SUBSTITUTED IMINO ARYL COMPOUND, PREPARATION METHOD THEREFOR, HERBICIDAL COMPOSITION AND USE THEREOF” (Qingdao Kingagroot Chemical Compound Co., Ltd., priority 2020, published 2023).

Columns and labels:
Experiment in all cases: Weeding effect in post-emergence stage
Format in all cases: in vivo
Conditions in all cases: fresh weight control rate level
Digitaria sanguinalis = system: Digitaria sanguinalis
Outline: (§1)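 Compound, dissolved in acetone and diluted in water with Tween 80 plus methyl oleate EC (1.5 liter/ha), is sprayed onto 2-3 leaf potted plants. Rates span 7.5–500 g/ha. After 3 weeks of greenhouse culture, weeding effect is counted as the mean of triplicates.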

Alopecurus japonicus = system: Alopecurus japonicus
Outline: as §1

Abutilon theophrasti = system: Abutilon theophrasti
Outline: as §1

Setaria viridis = system: Setaria viridis
Outline: as §1

Eleusine indica = system: Eleusine indica
Outline: as §1

Echinochloa crusgalli = system: Echinochloa crusgalli
Outline: as §1

Cc1cc(C)n(C(=O)C(C)O/N=C/c2cc(-n3c(=O)cc(C(F)(F)F)n(C)c3=O)c(F)cc2Cl)n1 (stereo not drawn) [Compound 424]
Weeding effect in post-emergence stage, Digitaria sanguinalis (level) (Digitaria sanguinalis; Dose 30 g/ha): 5 (Level 5: growth control rate is above 85%)
Weeding effect in post-emergence stage, Alopecurus japonicus (level) (Alopecurus japonicus; Dose 30 g/ha): 5 (Level 5: growth control rate is above 85%)
Weeding effect in post-emergence stage, Abutilon theophrasti (level) (Abutilon theophrasti; Dose 30 g/ha): 5 (Level 5: growth control rate is above 85%)
Weeding effect in post-emergence stage, Setaria viridis (level) (Setaria viridis; Dose 30 g/ha): 5 (Level 5: growth control rate is above 85%)
Weeding effect in post-emergence stage, Eleusine indica (level) (Eleusine indica; Dose 30 g/ha): 5 (Level 5: growth control rate is above 85%)
Weeding effect in post-emergence stage, Echinochloa crusgalli (level) (Echinochloa crusgalli; Dose 30 g/ha): 5 (Level 5: growth control rate is above 85%)

CCn1c(C(F)(F)F)cc(=O)n(-c2cc(/C=N/OC(C)C(=O)OC)c(Cl)cc2F)c1=O (stereo not drawn) [Compound 426]
Weeding effect in post-emergence stage, Digitaria sanguinalis (level) (Digitaria sanguinalis; Dose 250 g/ha): 5 (Level 5: growth control rate is above 85%)
Weeding effect in post-emergence stage, Alopecurus japonicus (level) (Alopecurus japonicus; Dose 250 g/ha): 5 (Level 5: growth control rate is above 85%)
Weeding effect in post-emergence stage, Abutilon theophrasti (level) (Abutilon theophrasti; Dose 250 g/ha): 5 (Level 5: growth control rate is above 85%)
Weeding effect in post-emergence stage, Setaria viridis (level) (Setaria viridis; Dose 250 g/ha): 5 (Level 5: growth control rate is above 85%)
Weeding effect in post-emergence stage, Eleusine indica (level) (Eleusine indica; Dose 250 g/ha): 5 (Level 5: growth control rate is above 85%)
Weeding effect in post-emergence stage, Echinochloa crusgalli (level) (Echinochloa crusgalli; Dose 250 g/ha): 5 (Level 5: growth control rate is above 85%)

COC(=O)C(C)O/N=C/c1cc(-n2c(=O)c(Cl)c(C(F)(F)F)n(C)c2=O)c(F)cc1Cl (stereo not drawn) [Compound 431]
Weeding effect in post-emergence stage, Digitaria sanguinalis (level) (Digitaria sanguinalis; Dose 15 g/ha): 5 (Level 5: growth control rate is above 85%)
Weeding effect in post-emergence stage, Alopecurus japonicus (level) (Alopecurus japonicus; Dose 15 g/ha): 5 (Level 5: growth control rate is above 85%)
Weeding effect in post-emergence stage, Abutilon theophrasti (level) (Abutilon theophrasti; Dose 15 g/ha): 5 (Level 5: growth control rate is above 85%)
Weeding effect in post-emergence stage, Setaria viridis (level) (Setaria viridis; Dose 15 g/ha): 5 (Level 5: growth control rate is above 85%)
Weeding effect in post-emergence stage, Eleusine indica (level) (Eleusine indica; Dose 15 g/ha): 5 (Level 5: growth control rate is above 85%)
Weeding effect in post-emergence stage, Echinochloa crusgalli (level) (Echinochloa crusgalli; Dose 15 g/ha): 5 (Level 5: growth control rate is above 85%)

COC(=O)C(C)O/N=C/c1cc(N2C(=O)CC(N)(C(F)(F)F)N(C)C2=O)c(F)cc1Cl (stereo not drawn) [Compound 432]
Weeding effect in post-emergence stage, Digitaria sanguinalis (level) (Digitaria sanguinalis; Dose 15 g/ha): 5 (Level 5: growth control rate is above 85%)
Weeding effect in post-emergence stage, Alopecurus japonicus (level) (Alopecurus japonicus; Dose 15 g/ha): 5 (Level 5: growth control rate is above 85%)
Weeding effect in post-emergence stage, Abutilon theophrasti (level) (Abutilon theophrasti; Dose 15 g/ha): 5 (Level 5: growth control rate is above 85%)
Weeding effect in post-emergence stage, Setaria viridis (level) (Setaria viridis; Dose 15 g/ha): 5 (Level 5: growth control rate is above 85%)
Weeding effect in post-emergence stage, Eleusine indica (level) (Eleusine indica; Dose 15 g/ha): 5 (Level 5: growth control rate is above 85%)
Weeding effect in post-emergence stage, Echinochloa crusgalli (level) (Echinochloa crusgalli; Dose 15 g/ha): 5 (Level 5: growth control rate is above 85%)

CC(O/N=C/c1cc(-n2c(=O)n(C)c(=S)n(C)c2=O)c(F)cc1Cl)C(=O)O (stereo not drawn) [Compound 438]
Weeding effect in post-emergence stage, Digitaria sanguinalis (level) (Digitaria sanguinalis; Dose 30 g/ha): 5 (Level 5: growth control rate is above 85%)
Weeding effect in post-emergence stage, Alopecurus japonicus (level) (Alopecurus japonicus; Dose 30 g/ha): 5 (Level 5: growth control rate is above 85%)
Weeding effect in post-emergence stage, Abutilon theophrasti (level) (Abutilon theophrasti; Dose 30 g/ha): 5 (Level 5: growth control rate is above 85%)
Weeding effect in post-emergence stage, Setaria viridis (level) (Setaria viridis; Dose 30 g/ha): 5 (Level 5: growth control rate is above 85%)
Weeding effect in post-emergence stage, Eleusine indica (level) (Eleusine indica; Dose 30 g/ha): 5 (Level 5: growth control rate is above 85%)
Weeding effect in post-emergence stage, Echinochloa crusgalli (level) (Echinochloa crusgalli; Dose 30 g/ha): 5 (Level 5: growth control rate is above 85%)

CC(O/N=C/c1cc(-n2c(=O)n(C)c(=S)n(C)c2=O)c(F)cc1Cl)C(=O)OCC(F)(F)F (stereo not drawn) [Compound 439]
Weeding effect in post-emergence stage, Digitaria sanguinalis (level) (Digitaria sanguinalis; Dose 30 g/ha): 5 (Level 5: growth control rate is above 85%)
Weeding effect in post-emergence stage, Alopecurus japonicus (level) (Alopecurus japonicus; Dose 30 g/ha): 5 (Level 5: growth control rate is above 85%)
Weeding effect in post-emergence stage, Abutilon theophrasti (level) (Abutilon theophrasti; Dose 30 g/ha): 5 (Level 5: growth control rate is above 85%)
Weeding effect in post-emergence stage, Setaria viridis (level) (Setaria viridis; Dose 30 g/ha): 5 (Level 5: growth control rate is above 85%)
Weeding effect in post-emergence stage, Eleusine indica (level) (Eleusine indica; Dose 30 g/ha): 5 (Level 5: growth control rate is above 85%)
Weeding effect in post-emergence stage, Echinochloa crusgalli (level) (Echinochloa crusgalli; Dose 30 g/ha): 5 (Level 5: growth control rate is above 85%)

C#CCCOC(=O)C(C)O/N=C/c1cc(-n2c(=O)cc(C(F)(F)F)n(C)c2=O)c(F)cc1Cl (stereo not drawn) [Compound 442]
Weeding effect in post-emergence stage, Digitaria sanguinalis (level) (Digitaria sanguinalis; Dose 15 g/ha): 5 (Level 5: growth control rate is above 85%)
Weeding effect in post-emergence stage, Alopecurus japonicus (level) (Alopecurus japonicus; Dose 15 g/ha): 5 (Level 5: growth control rate is above 85%)
Weeding effect in post-emergence stage, Abutilon theophrasti (level) (Abutilon theophrasti; Dose 15 g/ha): 5 (Level 5: growth control rate is above 85%)
Weeding effect in post-emergence stage, Setaria viridis (level) (Setaria viridis; Dose 15 g/ha): 5 (Level 5: growth control rate is above 85%)
Weeding effect in post-emergence stage, Eleusine indica (level) (Eleusine indica; Dose 15 g/ha): 5 (Level 5: growth control rate is above 85%)
Weeding effect in post-emergence stage, Echinochloa crusgalli (level) (Echinochloa crusgalli; Dose 15 g/ha): 5 (Level 5: growth control rate is above 85%)

CC(C#N)OC(=O)C(C)O/N=C/c1cc(-n2c(=O)cc(C(F)(F)F)n(C)c2=O)c(F)cc1Cl (stereo not drawn) [Compound 443]
Weeding effect in post-emergence stage, Digitaria sanguinalis (level) (Digitaria sanguinalis; Dose 15 g/ha): 5 (Level 5: growth control rate is above 85%)
Weeding effect in post-emergence stage, Alopecurus japonicus (level) (Alopecurus japonicus; Dose 15 g/ha): 5 (Level 5: growth control rate is above 85%)
Weeding effect in post-emergence stage, Abutilon theophrasti (level) (Abutilon theophrasti; Dose 15 g/ha): 5 (Level 5: growth control rate is above 85%)
Weeding effect in post-emergence stage, Setaria viridis (level) (Setaria viridis; Dose 15 g/ha): 5 (Level 5: growth control rate is above 85%)
Weeding effect in post-emergence stage, Eleusine indica (level) (Eleusine indica; Dose 15 g/ha): 5 (Level 5: growth control rate is above 85%)
Weeding effect in post-emergence stage, Echinochloa crusgalli (level) (Echinochloa crusgalli; Dose 15 g/ha): 5 (Level 5: growth control rate is above 85%)

CC(CC#N)OC(=O)C(C)O/N=C/c1cc(-n2c(=O)cc(C(F)(F)F)n(C)c2=O)c(F)cc1Cl (stereo not drawn) [Compound 444]
Weeding effect in post-emergence stage, Digitaria sanguinalis (level) (Digitaria sanguinalis; Dose 15 g/ha): 5 (Level 5: growth control rate is above 85%)
Weeding effect in post-emergence stage, Alopecurus japonicus (level) (Alopecurus japonicus; Dose 15 g/ha): 5 (Level 5: growth control rate is above 85%)
Weeding effect in post-emergence stage, Abutilon theophrasti (level) (Abutilon theophrasti; Dose 15 g/ha): 5 (Level 5: growth control rate is above 85%)
Weeding effect in post-emergence stage, Setaria viridis (level) (Setaria viridis; Dose 15 g/ha): 5 (Level 5: growth control rate is above 85%)
Weeding effect in post-emergence stage, Eleusine indica (level) (Eleusine indica; Dose 15 g/ha): 5 (Level 5: growth control rate is above 85%)
Weeding effect in post-emergence stage, Echinochloa crusgalli (level) (Echinochloa crusgalli; Dose 15 g/ha): 5 (Level 5: growth control rate is above 85%)

CC(C#N)COC(=O)C(C)O/N=C/c1cc(-n2c(=O)cc(C(F)(F)F)n(C)c2=O)c(F)cc1Cl (stereo not drawn) [Compound 445]
Weeding effect in post-emergence stage, Digitaria sanguinalis (level) (Digitaria sanguinalis; Dose 15 g/ha): 5 (Level 5: growth control rate is above 85%)
Weeding effect in post-emergence stage, Alopecurus japonicus (level) (Alopecurus japonicus; Dose 15 g/ha): 5 (Level 5: growth control rate is above 85%)
Weeding effect in post-emergence stage, Abutilon theophrasti (level) (Abutilon theophrasti; Dose 15 g/ha): 5 (Level 5: growth control rate is above 85%)
Weeding effect in post-emergence stage, Setaria viridis (level) (Setaria viridis; Dose 15 g/ha): 5 (Level 5: growth control rate is above 85%)
Weeding effect in post-emergence stage, Eleusine indica (level) (Eleusine indica; Dose 15 g/ha): 5 (Level 5: growth control rate is above 85%)
Weeding effect in post-emergence stage, Echinochloa crusgalli (level) (Echinochloa crusgalli; Dose 15 g/ha): 5 (Level 5: growth control rate is above 85%)

CC(O/N=C/c1cc(-n2c(=O)cc(C(F)(F)F)n(C)c2=O)c(F)cc1Cl)C(=O)OCCCC#N (stereo not drawn) [Compound 446]
Weeding effect in post-emergence stage, Digitaria sanguinalis (level) (Digitaria sanguinalis; Dose 15 g/ha): 5 (Level 5: growth control rate is above 85%)
Weeding effect in post-emergence stage, Alopecurus japonicus (level) (Alopecurus japonicus; Dose 15 g/ha): 5 (Level 5: growth control rate is above 85%)
Weeding effect in post-emergence stage, Abutilon theophrasti (level) (Abutilon theophrasti; Dose 15 g/ha): 5 (Level 5: growth control rate is above 85%)
Weeding effect in post-emergence stage, Setaria viridis (level) (Setaria viridis; Dose 15 g/ha): 5 (Level 5: growth control rate is above 85%)
Weeding effect in post-emergence stage, Eleusine indica (level) (Eleusine indica; Dose 15 g/ha): 5 (Level 5: growth control rate is above 85%)
Weeding effect in post-emergence stage, Echinochloa crusgalli (level) (Echinochloa crusgalli; Dose 15 g/ha): 5 (Level 5: growth control rate is above 85%)

CC(O/N=C/c1cc(-n2c(=O)cc(C(F)(F)F)n(C)c2=O)c(F)cc1Cl)C(=O)OCC1(C#N)CC1 (stereo not drawn) [Compound 447]
Weeding effect in post-emergence stage, Digitaria sanguinalis (level) (Digitaria sanguinalis; Dose 15 g/ha): 5 (Level 5: growth control rate is above 85%)
Weeding effect in post-emergence stage, Alopecurus japonicus (level) (Alopecurus japonicus; Dose 15 g/ha): 5 (Level 5: growth control rate is above 85%)
Weeding effect in post-emergence stage, Abutilon theophrasti (level) (Abutilon theophrasti; Dose 15 g/ha): 5 (Level 5: growth control rate is above 85%)
Weeding effect in post-emergence stage, Setaria viridis (level) (Setaria viridis; Dose 15 g/ha): 5 (Level 5: growth control rate is above 85%)
Weeding effect in post-emergence stage, Eleusine indica (level) (Eleusine indica; Dose 15 g/ha): 5 (Level 5: growth control rate is above 85%)
Weeding effect in post-emergence stage, Echinochloa crusgalli (level) (Echinochloa crusgalli; Dose 15 g/ha): 5 (Level 5: growth control rate is above 85%)

CC(O/N=C/c1cc(-n2c(=O)cc(C(F)(F)F)n(C)c2=O)c(F)cc1Cl)C(=O)OCCN(C)C (stereo not drawn) [Compound 448]
Weeding effect in post-emergence stage, Digitaria sanguinalis (level) (Digitaria sanguinalis; Dose 15 g/ha): 5 (Level 5: growth control rate is above 85%)
Weeding effect in post-emergence stage, Alopecurus japonicus (level) (Alopecurus japonicus; Dose 15 g/ha): 5 (Level 5: growth control rate is above 85%)
Weeding effect in post-emergence stage, Abutilon theophrasti (level) (Abutilon theophrasti; Dose 15 g/ha): 5 (Level 5: growth control rate is above 85%)
Weeding effect in post-emergence stage, Setaria viridis (level) (Setaria viridis; Dose 15 g/ha): 5 (Level 5: growth control rate is above 85%)
Weeding effect in post-emergence stage, Eleusine indica (level) (Eleusine indica; Dose 15 g/ha): 5 (Level 5: growth control rate is above 85%)
Weeding effect in post-emergence stage, Echinochloa crusgalli (level) (Echinochloa crusgalli; Dose 15 g/ha): 5 (Level 5: growth control rate is above 85%)
